Series [1] deals with 5-hydroxytryptamine receptor 2B (Homo sapiens, UniProt P41595). It counts as cell membranes, CHO-K1, Membrane.
The nature of series [2]: DRUGMATRIX: Calcium Channel Type L, Phenylalkylamine radioligand binding (ligand: [3H] (-)-Desmethoxyverapamil (D-888)). The format is cell membranes, Rattus norvegicus, Wistar, Brain, Membrane. As to conditions: Not Active = under 50% inhibition at 10 µM.
In series [3] the target is D(3) dopamine receptor (Homo sapiens, UniProt P35462). Kind of series: DRUGMATRIX: Dopamine D3 radioligand binding (ligand: [3H] Spiperone). It counts as cell membranes, CHO, Membrane. Conditions: for Ki: read-out: Ki.
In series [4] the target is T1, Cytochrome P450 1A2 (Homo sapiens, UniProt P05177). Note: in other assays of this panel Not Active means under 50% inhibition at 10 µM.
T1 sequence (P05177 whole entry): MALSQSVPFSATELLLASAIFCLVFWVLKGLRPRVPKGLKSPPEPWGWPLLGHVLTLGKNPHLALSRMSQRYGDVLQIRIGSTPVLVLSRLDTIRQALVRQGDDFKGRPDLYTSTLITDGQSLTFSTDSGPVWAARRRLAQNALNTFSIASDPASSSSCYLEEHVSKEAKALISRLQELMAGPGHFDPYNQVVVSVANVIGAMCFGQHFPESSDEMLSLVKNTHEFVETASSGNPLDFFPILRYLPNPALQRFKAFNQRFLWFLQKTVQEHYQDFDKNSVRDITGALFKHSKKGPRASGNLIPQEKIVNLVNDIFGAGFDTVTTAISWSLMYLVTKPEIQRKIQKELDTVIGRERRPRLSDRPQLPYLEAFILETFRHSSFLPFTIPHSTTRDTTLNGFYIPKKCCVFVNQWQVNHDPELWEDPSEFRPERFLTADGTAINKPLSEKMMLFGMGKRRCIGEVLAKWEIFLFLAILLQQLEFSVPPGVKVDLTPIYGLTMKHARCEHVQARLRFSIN
As to conditions: bti-tn-5b1-4.

The target in series [5] is Cytochrome P450 2C19 (Homo sapiens, UniProt P33261). Conditions: bti-tn-5b1-4. Note: in other assays of this panel Not Active means under 50% inhibition at 10 µM.
Series [6] deals with Estrogen receptor beta (Homo sapiens, UniProt Q92731). As to conditions: sf9.

Drawing on ChEMBL document CHEMBL1909046, “DrugMatrix in vitro pharmacology data”, this text covers IC50 and Ki for 20 molecules.

Structures are written as SMILES.

Chain of 5-hydroxytryptamine receptor 2B (P41595 whole entry): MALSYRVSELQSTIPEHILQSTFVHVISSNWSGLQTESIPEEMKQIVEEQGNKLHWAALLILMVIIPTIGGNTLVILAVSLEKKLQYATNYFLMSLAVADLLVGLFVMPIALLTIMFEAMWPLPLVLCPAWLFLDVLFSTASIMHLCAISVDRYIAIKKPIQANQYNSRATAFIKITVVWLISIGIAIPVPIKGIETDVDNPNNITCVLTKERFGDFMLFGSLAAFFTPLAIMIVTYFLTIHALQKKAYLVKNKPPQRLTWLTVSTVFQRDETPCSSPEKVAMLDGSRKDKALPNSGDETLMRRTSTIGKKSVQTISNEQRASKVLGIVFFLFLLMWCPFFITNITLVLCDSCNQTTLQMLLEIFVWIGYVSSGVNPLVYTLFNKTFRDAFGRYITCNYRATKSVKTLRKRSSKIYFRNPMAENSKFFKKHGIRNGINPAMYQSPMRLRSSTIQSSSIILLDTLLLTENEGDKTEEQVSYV
Chain of D(3) dopamine receptor (P35462 whole entry): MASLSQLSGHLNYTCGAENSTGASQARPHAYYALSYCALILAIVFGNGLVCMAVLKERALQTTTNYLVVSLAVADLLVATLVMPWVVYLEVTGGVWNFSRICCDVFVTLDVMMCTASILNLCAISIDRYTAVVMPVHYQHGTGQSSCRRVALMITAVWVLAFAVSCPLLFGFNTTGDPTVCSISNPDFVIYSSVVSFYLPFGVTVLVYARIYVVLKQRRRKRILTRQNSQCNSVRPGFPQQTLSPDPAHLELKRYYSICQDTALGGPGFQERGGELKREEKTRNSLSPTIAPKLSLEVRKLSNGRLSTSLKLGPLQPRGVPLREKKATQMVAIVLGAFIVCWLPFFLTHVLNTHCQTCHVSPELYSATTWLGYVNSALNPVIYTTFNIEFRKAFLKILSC
Chain of Estrogen receptor beta (Q92731 whole entry): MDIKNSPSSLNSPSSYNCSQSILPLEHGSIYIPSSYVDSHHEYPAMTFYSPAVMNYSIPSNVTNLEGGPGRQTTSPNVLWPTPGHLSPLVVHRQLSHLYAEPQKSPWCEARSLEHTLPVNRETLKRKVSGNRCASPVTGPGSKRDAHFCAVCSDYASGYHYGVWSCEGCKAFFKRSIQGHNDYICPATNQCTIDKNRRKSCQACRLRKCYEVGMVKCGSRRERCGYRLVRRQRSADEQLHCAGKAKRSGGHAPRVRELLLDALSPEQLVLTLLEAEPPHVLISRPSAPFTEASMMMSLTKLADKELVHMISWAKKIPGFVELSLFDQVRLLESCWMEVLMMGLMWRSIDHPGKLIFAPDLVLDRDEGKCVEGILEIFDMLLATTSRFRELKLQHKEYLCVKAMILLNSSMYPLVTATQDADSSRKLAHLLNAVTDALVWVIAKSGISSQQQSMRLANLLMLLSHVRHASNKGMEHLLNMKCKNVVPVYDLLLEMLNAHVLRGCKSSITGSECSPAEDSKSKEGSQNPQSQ
Chain of Cytochrome P450 2C19 (P33261 whole entry): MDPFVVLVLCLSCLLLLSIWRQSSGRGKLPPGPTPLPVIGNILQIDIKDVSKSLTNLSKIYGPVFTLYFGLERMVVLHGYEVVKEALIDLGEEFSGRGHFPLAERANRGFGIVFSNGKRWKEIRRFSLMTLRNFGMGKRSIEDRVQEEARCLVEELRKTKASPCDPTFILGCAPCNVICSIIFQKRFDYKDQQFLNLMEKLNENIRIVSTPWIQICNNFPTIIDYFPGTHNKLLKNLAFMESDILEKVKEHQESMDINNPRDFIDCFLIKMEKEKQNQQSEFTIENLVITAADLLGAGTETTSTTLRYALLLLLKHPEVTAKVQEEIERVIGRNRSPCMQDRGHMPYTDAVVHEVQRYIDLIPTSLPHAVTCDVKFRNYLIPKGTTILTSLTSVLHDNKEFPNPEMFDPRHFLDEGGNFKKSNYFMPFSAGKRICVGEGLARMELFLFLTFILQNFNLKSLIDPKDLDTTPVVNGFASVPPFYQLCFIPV

Take `CC[C@H](C)[C@@H](CO[C@@H](Cc1ccccc1)C(=O)N[C@@H](CCS(C)(=O)=O)C(=O)OC(C)C)NC[C@@H](N)CS`: the IC50 result in series [1] (cho-k1) was “Not Active”; in series [2] it was “Not Active”; in series [3] (read-out: IC50) it was 28 nM; in series [4], “Not Active”; in series [5], “Not Active”; in series [6], “Not Active”. Also, the Ki entry in series [2] was “Not Active”; in series [3] it was 9.63 nM; in series [4] it was “Not Active”; in series [5], “Not Active”.

`Nc1nc(N)c2nc(-c3ccccc3)c(N)nc2n1`: the IC50 result in series [1] (cho-k1), in series [2], in series [3] (cho), in series [4], in series [5] and in series [6] was “Not Active” throughout. Besides, the Ki entry in series [2], in series [4] and in series [5] was “Not Active” throughout.

As to `CCOC(=O)C1=C(C)NC(C)=C(C(=O)OCC)C1c1ccccc1/C=C/C(=O)OC(C)(C)C` [LACIDIPINE], the IC50 result is “Not Active” in series [1] (cho-k1); “Not Active” in series [2]; 6170 nM in series [3] (read-out: IC50); “Not Active” in series [4]; “Not Active” in series [6]. In addition, the Ki entry is “Not Active” in series [2], 2100 nM in series [3] and “Not Active” in series [4].

Consider `CC(C)(C)NC[C@H](O)COc1cccc2c1CCCC2=O` [LEVOBUNOLOL], for which the IC50 result in series [1] (cho-k1), in series [2], in series [3] (cho), in series [4], in series [5] and in series [6] was “Not Active” throughout. Also, the Ki result in series [2], in series [4] and in series [5] was “Not Active” throughout.

With `Cc1ccc(Cl)c(Nc2ccccc2C(=O)O)c1Cl` [MECLOFENAMIC ACID], the IC50 entry in series [1] (cho-k1), in series [2], in series [3] (cho), in series [4], in series [5] and in series [6] was “Not Active” in each case. Moreover, the Ki entry in series [2], in series [4] and in series [5] was “Not Active” in each case.

Take `Cc1cnc(NC(=O)C2=C(O)c3ccccc3S(=O)(=O)N2C)s1` [MELOXICAM]: the IC50 entry in series [1] (cho-k1), in series [2], in series [3] (cho), in series [4], in series [5] and in series [6] was “Not Active” each time. Besides, the Ki entry in series [2], in series [4] and in series [5] was “Not Active” in each case.

With `CCN(CC)CCNC(=O)c1cc(Cl)c(N)cc1OC` [METOCLOPRAMIDE], the IC50 in series [1] (read-out: IC50) was 630 nM; in series [2], “Not Active”; in series [3] (read-out: IC50), 200 nM; in series [4] it was “Not Active”; in series [5] it was “Not Active”; in series [6], “Not Active”. Further, the Ki in series [1] (read-out: Ki) was 401 nM; in series [2], “Not Active”; in series [3], 68 nM; in series [4] it was “Not Active”; in series [5] it was “Not Active”.

Regarding `CC[C@H](C)C(=O)O[C@H]1CCC=C2C=C[C@H](C)[C@H](CC[C@@H]3C[C@@H](O)CC(=O)O3)[C@H]21` [MEVASTATIN], the IC50 result in series [1] (cho-k1), in series [2], in series [3] (cho), in series [4], in series [5] and in series [6] was “Not Active” each time. The Ki entry in series [2], in series [4] and in series [5] was “Not Active” throughout.

With `CC#C[C@]1(O)CC[C@H]2[C@@H]3CCC4=CC(=O)CCC4=C3[C@@H](c3ccc(N(C)C)cc3)C[C@@]21C` [MIFEPRISTONE], the IC50 entry in series [1] (cho-k1) was “Not Active”; in series [2] (read-out: IC50), 16 µM; in series [3] (cho), “Not Active”; in series [4], “Not Active”; in series [5] it was “Not Active”; in series [6] it was “Not Active”. For the same molecule, the results for the Ki in series [2] (read-out: Ki), in series [4] and in series [5] were 15.6 µM, “Not Active” and “Not Active”, respectively.

In the case of `Cc1[nH]c(=O)c(C#N)cc1-c1ccncc1` [MILRINONE], the IC50 result in series [1] (cho-k1), in series [2], in series [3] (cho), in series [4] and in series [6] was “Not Active” throughout. In addition, the Ki entry in series [2] and in series [4] was “Not Active” each time.

As to `CO[C@@]12[C@H](COC(N)=O)C3=C(C(=O)C(C)=C(N)C3=O)N1C[C@@H]1N[C@@H]12` [MITOMYCIN], the IC50 entry in series [1] (cho-k1), in series [2], in series [3] (cho), in series [4], in series [5] and in series [6] was “Not Active” each time. In addition, the Ki entry in series [2], in series [4] and in series [5] was “Not Active” in each case.

With `O=C1CC[C@@]2(O)[C@H]3Cc4ccc(O)c5c4[C@@]2(CCN3CC2CC2)[C@H]1O5` [NALTREXONE], the IC50 entry in series [1] (cho-k1), in series [2], in series [3] (cho), in series [4], in series [5] and in series [6] was “Not Active” each time. Further, the Ki result in series [2], in series [4] and in series [5] was “Not Active” each time.

In the case of `CC(N)C12CC3CC(CC(C3)C1)C2` (stereo not drawn) [RIMANTADINE], the IC50 entry in series [1] (cho-k1), in series [2], in series [3] (cho), in series [4], in series [5] and in series [6] was “Not Active” each time. In addition, the Ki entry in series [2], in series [4] and in series [5] was “Not Active” each time.

As for `CS(=O)(=O)c1ccc(C2=C(c3ccccc3)C(=O)OC2)cc1` [ROFECOXIB], the IC50 result in series [1] (cho-k1), in series [2], in series [3] (cho), in series [4], in series [5] and in series [6] was “Not Active” each time. Also, the Ki entry in series [2], in series [4] and in series [5] was “Not Active” each time.

`O=[As][O-].[Na+]` [SODIUM ARSENITE]: the IC50 result in series [1] (cho-k1), in series [2], in series [3] (cho), in series [4], in series [5] and in series [6] was “Not Active” throughout. Besides, the Ki entry in series [2], in series [4] and in series [5] was “Not Active” in each case.

Take `C[C@]12CCC(=O)C[C@@H]1CC[C@@H]1[C@@H]2CC[C@]2(C)[C@@H](O)CC[C@@H]12` [STANOLONE]: the IC50 entry in series [1] (cho-k1), in series [2], in series [3] (cho), in series [4], in series [5] and in series [6] was “Not Active” in each case. In addition, the Ki result in series [2], in series [4] and in series [5] was “Not Active” throughout.

With `Cc1cn([C@H]2C=C[C@@H](CO)O2)c(=O)[nH]c1=O` [STAVUDINE], the IC50 result in series [1] (cho-k1), in series [2], in series [3] (cho), in series [4], in series [5] and in series [6] was “Not Active” throughout. Further, the Ki entry in series [2], in series [4] and in series [5] was “Not Active” each time.

Take `CC1(C)[C@H](C(=O)O)N2C(=O)C[C@H]2S1(=O)=O` [SULBACTAM]: the IC50 entry in series [1] (cho-k1), in series [2], in series [3] (cho), in series [4], in series [5] and in series [6] was “Not Active” in each case. For the same molecule, the Ki result in series [2], in series [4] and in series [5] was “Not Active” in each case.

Consider `O=C(O)c1cc(/N=N/c2ccc(S(=O)(=O)Nc3ccccn3)cc2)ccc1O` [SULFASALAZINE], for which the IC50 entry in series [1] (cho-k1), in series [2], in series [3] (cho), in series [4], in series [5] and in series [6] was “Not Active” in each case. Moreover, the Ki entry in series [2], in series [4] and in series [5] was “Not Active” in each case.

In the case of `C#C[C@]1(O)CC[C@H]2[C@@H]3[C@H](C)CC4=C(CCC(=O)C4)[C@H]3CC[C@@]21C` [TIBOLONE], the IC50 entry in series [1] (cho-k1), in series [2], in series [3] (cho), in series [4] and in series [6] was “Not Active” in each case. In addition, the Ki entry in series [2] and in series [4] was “Not Active” in each case.

As a reminder, the IC50 is the point on the concentration scale where inhibition reaches its midpoint. As usually defined, the Ki is a dissociation constant, usually derived from enzyme kinetics or from competition with a known ligand.
